{
  "source": "paper PMC5988656",
  "about": "“Phase I studies of AZD1208, a proviral integration Moloney virus kinase inhibitor in solid and haematological cancers” (British Journal of Cancer, 2018)",
  "key": {"[1]": {"assay": "AML dose-escalation study: pharmacokinetics (plasma, urine)", "format": "in vivo, human", "conditions": "for Gmean plasma concentration of AZD1208 (± SD): Cycle 1, Day 14", "protocol": "The schedules for collection of blood and urine samples for PK analyses in each cohort in both studies are described in Supplementary Table 1. When necessary for clinical response assessment in the AML study, a bone marrow sample for PK analysis was collected at Cycle 1, Day 28.\nThe concentration of AZD1208 in plasma and urine was determined by Covance, on behalf of Clinical Bioanalysis Alliance at AstraZeneca R&D, using a bioanalytical method. A volume of 0.05 ml of K2EDTA human plasma sample was extracted by liquid–liquid extraction using 0.7 ml of methyl tert-butyl ether. Approximately 100 µl of the supernatant was transferred, evaporated to dryness and reconstituted with 350 µl of 1:1 methanol:water, and a 5 µl injection was made to the high-performance liquid chromatography (HPLC) column. HPLC separations were performed on a Phenomenex LUNA C18 (50 × 2 mm, 5 µm) column using a mobile phase of 0.1% formic acid in water (A) and 0.1% formic acid in acetonitrile (B) at a flow rate of 0.6 ml/min and a column temperature of 40 °C. AZD1208-D5 was used as the internal standard. Detection was performed in a Sciex API4000 mass spectrometer, in a positive electrospray ionisation mode, using multiple reaction monitoring detection (AZD1208: 380.0–>248.1; AZD1208-D5: 385.0–>253.1)."}, "[2]": {"tested_on": "pBAD S112", "assay": "PD: phosphorylated BAD at S112 by MesoScale Discovery ELISA, AML study", "format": "in vivo, human", "protocol": "For AZD1208 PD evaluations, bone marrow aspirates were collected (pretreatment and Cycle 1, Day 1, 2–6 h following administration of AZD1208) and peripheral blood samples were collected (pretreatment on Cycle 1, Day 1; and on-treatment at Cycle 1, Day 1 at 3, 6 and 24 h post-dose; Cycle 1, Day 14 at pre-dose, 3 and 6 h post-dose). Mononuclear cells were isolated, and protein lysates prepared, for subsequent analysis of phosphorylated BAD at S112 by MesoScale Discovery ELISA and phosphorylation of 4E-BP1 at S65 by NanoPro immunoassay [unpublished data: McEachern et al. 2018, manuscript in preparation]. Samples were considered evaluable when the baseline biomarker levels were above the background signal (as defined by buffer-only negative control samples) and within the linear range of assay. Additionally, only blood samples containing detectable blasts were considered for analysis."}},
  "note": "“And” between values parts separate entries of the source, which are not always exact repeats. Equal values may be shown once.",
  "data": [
    {"smiles": "N[C@@H]1CCCN(c2c(/C=C3\\SC(=O)NC3=O)cccc2-c2ccccc2)C1", "note": "[AZD1208]", "values": [
      {"measurement": "Gmean plasma concentration of AZD1208 (± SD)", "setting": "[1]; 0.5 h post-dose, 240 mg, n=6", "value": "2365.9 (976.3, 6694.0) ng ml"},
      {"measurement": "Gmean plasma concentration of AZD1208 (± SD)", "setting": "[1]; 0.5 h post-dose, 480 mg, n=6", "value": "2887.4 (322.6, 25 841.7) ng ml"},
      {"measurement": "Gmean plasma concentration of AZD1208 (± SD)", "setting": "[1]; 0.5 h post-dose, 700 mg, n=7", "value": "2029.2 (863.1, 4770.5) ng ml"},
      {"measurement": "Gmean plasma concentration of AZD1208 (± SD)", "setting": "[1]; 1 h post-dose, 120 mg, n=3", "value": "2050.2 (1514.6, 2775.2) ng ml"},
      {"measurement": "Gmean plasma concentration of AZD1208 (± SD)", "setting": "[1]; 1 h post-dose, 480 mg, n=6", "value": "4956.2 (1164.7, 21 090.8) ng ml"},
      {"measurement": "Gmean plasma concentration of AZD1208 (± SD)", "setting": "[1]; 1 h post-dose, 700 mg, n=7", "value": "2013.8 (1004.8, 4035.8) ng ml"},
      {"measurement": "Gmean plasma concentration of AZD1208 (± SD)", "setting": "[1]; 1 h post-dose, 900 mg, n=9", "value": "1952.5 (1166.1, 3269.1) ng ml"},
      {"measurement": "Gmean plasma concentration of AZD1208 (± SD)", "setting": "[1]; 1.5 h post-dose, 120 mg, n=3", "value": "2375.1 (1849.1, 3050.7) ng ml"},
      {"measurement": "Gmean plasma concentration of AZD1208 (± SD)", "setting": "[1]; 1.5 h post-dose, 240 mg, n=6", "value": "5142.8 (4058.6, 6516.6) ng ml"},
      {"measurement": "Gmean plasma concentration of AZD1208 (± SD)", "setting": "[1]; 1.5 h post-dose, 480 mg, n=6", "value": "5384.2 (2123.1, 13 654.8) ng ml"},
      {"measurement": "Gmean plasma concentration of AZD1208 (± SD)", "setting": "[1]; 1.5 h post-dose, 700 mg, n=7", "value": "3963.7 (2236.9, 7023.5) ng ml"},
      {"measurement": "Gmean plasma concentration of AZD1208 (± SD)", "setting": "[1]; 1.5 h post-dose, 900 mg, n=9", "value": "2747.1 (1719.7, 4388.3) ng ml"},
      {"measurement": "Gmean plasma concentration of AZD1208 (± SD)", "setting": "[1]; 2 h post-dose, 120 mg, n=3", "value": "2216.3 (1388.5, 3537.7) ng ml"},
      {"measurement": "Gmean plasma concentration of AZD1208 (± SD)", "setting": "[1]; 2 h post-dose, 240 mg, n=6", "value": "6153.8 (5277.1, 7175.8) ng ml"},
      {"measurement": "Gmean plasma concentration of AZD1208 (± SD)", "setting": "[1]; 2 h post-dose, 480 mg, n=6", "value": "5818.8 (2320.7, 14 589.5) ng ml"},
      {"measurement": "Gmean plasma concentration of AZD1208 (± SD)", "setting": "[1]; 2 h post-dose, 700 mg, n=7", "value": "4388.1 (2945.6, 6536.9) ng ml"},
      {"measurement": "Gmean plasma concentration of AZD1208 (± SD)", "setting": "[1]; 2 h post-dose, 900 mg, n=9", "value": "3107.5 (1803.0, 5356.1) ng ml"},
      {"measurement": "Gmean plasma concentration of AZD1208 (± SD)", "setting": "[1]; 3 h post-dose, 120 mg, n=3", "value": "2052.0 (1181.0, 3565.2) ng ml"},
      {"measurement": "Gmean plasma concentration of AZD1208 (± SD)", "setting": "[1]; 3 h post-dose, 240 mg, n=6", "value": "3687.8 (1657.8, 8203.5) ng ml"},
      {"measurement": "Gmean plasma concentration of AZD1208 (± SD)", "setting": "[1]; 3 h post-dose, 480 mg, n=6", "value": "5515.9 (1885.1, 16 139.7) ng ml"},
      {"measurement": "Gmean plasma concentration of AZD1208 (± SD)", "setting": "[1]; 3 h post-dose, 700 mg, n=7", "value": "5521.1 (2560.5, 11 905.2) ng ml"},
      {"measurement": "Gmean plasma concentration of AZD1208 (± SD)", "setting": "[1]; 3 h post-dose, 900 mg, n=9", "value": "3179.0 (1505.2, 6714.4) ng ml"},
      {"measurement": "Gmean plasma concentration of AZD1208 (± SD)", "setting": "[1]; 6 h post-dose, 120 mg, n=3", "value": "1761.5 (1019.2, 3044.5) ng ml"},
      {"measurement": "Gmean plasma concentration of AZD1208 (± SD)", "setting": "[1]; 6 h post-dose, 240 mg, n=6", "value": "3196.3 (1504.2, 6791.5) ng ml"},
      {"measurement": "Gmean plasma concentration of AZD1208 (± SD)", "setting": "[1]; 6 h post-dose, 480 mg, n=6", "value": "5420.2 (1806.5, 16 262.9) ng ml"},
      {"measurement": "Gmean plasma concentration of AZD1208 (± SD)", "setting": "[1]; 6 h post-dose, 700 mg, n=7", "value": "4452.1 (2126.6, 9320.8) ng ml"},
      {"measurement": "Gmean plasma concentration of AZD1208 (± SD)", "setting": "[1]; 6 h post-dose, 900 mg, n=9", "value": "2320.5 (896.7, 6004.8) ng ml"},
      {"measurement": "Gmean plasma concentration of AZD1208 (± SD)", "setting": "[1]; 8 h post-dose, 120 mg, n=3", "value": "1700.4 (974.4, 2967.5) ng ml"},
      {"measurement": "Gmean plasma concentration of AZD1208 (± SD)", "setting": "[1]; 8 h post-dose, 240 mg, n=6", "value": "2735.5 (1203.4, 6218.4) ng ml"},
      {"measurement": "Gmean plasma concentration of AZD1208 (± SD)", "setting": "[1]; 8 h post-dose, 480 mg, n=6", "value": "5248.1 (1804.2, 15 265.9) ng ml"},
      {"measurement": "Gmean plasma concentration of AZD1208 (± SD)", "setting": "[1]; 8 h post-dose, 700 mg, n=7", "value": "4064.8 (2043.6, 8085.1) ng ml"},
      {"measurement": "Gmean plasma concentration of AZD1208 (± SD)", "setting": "[1]; 8 h post-dose, 900 mg, n=9", "value": "2608.4 (2223.6, 3059.7) ng ml"},
      {"measurement": "Gmean plasma concentration of AZD1208 (± SD)", "setting": "[1]; 24 h post-dose, 120 mg, n=3", "value": "1248.3 (485.6, 3208.8) ng ml"},
      {"measurement": "Gmean plasma concentration of AZD1208 (± SD)", "setting": "[1]; 24 h post-dose, 240 mg, n=6", "value": "1818.9 (580.7, 5697.5) ng ml"},
      {"measurement": "Gmean plasma concentration of AZD1208 (± SD)", "setting": "[1]; 24 h post-dose, 480 mg, n=6", "value": "3154.5 (406.4, 24 485.6) ng ml"},
      {"measurement": "Gmean plasma concentration of AZD1208 (± SD)", "setting": "[1]; 24 h post-dose, 700 mg, n=7", "value": "2302.0 (643.6, 8233.0) ng ml"},
      {"measurement": "Gmean plasma concentration of AZD1208 (± SD)", "setting": "[1]; 24 h post-dose, 900 mg, n=9", "value": "593.0 (174.0, 2021.0) ng ml"},
      {"measurement": "Gmean plasma concentration of AZD1208 (± SD)", "setting": "[1]; pre-dose, 120 mg, n=3", "value": "1163.1 (335.5, 4032.0) ng ml"},
      {"measurement": "Gmean plasma concentration of AZD1208 (± SD)", "setting": "[1]; pre-dose, 240 mg, n=6", "value": "2106.9 (693.2, 6845.2) ng ml"},
      {"measurement": "Gmean plasma concentration of AZD1208 (± SD)", "setting": "[1]; pre-dose, 480 mg, n=6", "value": "2302.9 (541.6, 9792.3) ng ml"},
      {"measurement": "Gmean plasma concentration of AZD1208 (± SD)", "setting": "[1]; pre-dose, 700 mg, n=7", "value": "2513.6 (1057.2, 5976.4) ng ml"},
      {"measurement": "Gmean plasma concentration of AZD1208 (± SD)", "setting": "[1]; pre-dose, 900 mg, n=9", "value": "463.1 (444.2, 482.7) ng ml"},
      {"measurement": "Patients with marked accumulation (>3-fold)", "setting": "[1]; across the doses, 7/16 patients", "value": 44, "unit": "%"},
      {"measurement": "Median time to maximum plasma concentration (Tmax)", "setting": "[1]; after a single dose", "value": "~ 3 h"},
      {"measurement": "Differences in AZD1208 concentrations between individuals within the same cohort", "setting": "[1]; after multiple doses", "value": "up to 10 fold"},
      {"measurement": "Dose proportionality of Cmax and AUC0–24", "setting": "[1]; following multiple doses", "value": "less than dose proportional"},
      {"measurement": "Accumulation ratio", "setting": "[1]; individual patients at 480 mg", "value": "3.6 and 0.36"},
      {"measurement": "Administered dose eliminated unchanged in urine", "setting": "[1]; within 24 h, all cohorts", "value": "< 1", "unit": "%"},
      {"measurement": "Patients with reductions in pBAD S112", "setting": "[2]; evaluable bone marrow samples, single dose", "value": "7/17"},
      {"measurement": "Patients with ≥50% reduction from baseline of pBAD S112", "setting": "[2]; peripheral blood, all dose levels", "value": "9/10"}
    ]}
  ]
}
